Key:
[1] = system: Src family kinases when they carry the respective TQ mutations; details: cited from earlier work
[2] = system: Src-YF expressing ZM77 cell lines; experiment: Suppression of tet-induced phenotype changes (cell scattering) in suspension, Ultra Low Attachment plates; assay type: cell-based, human; details: Ultralow Attachment Plates
Procedure: (§1) Cells were seeded into 24-well or 96-well "Ultra Low Attachment" plates (cat.no.: 3473, Costar Corning Corp., Acton, MA, USA). These plates are coated with a covalently bound hydrogel layer that prevents cellular attachment to the polystyrene surface of the wells. As the cells were not attached to these wells, a medium change was impossible here. However, the phenotypes were tested in full serum-containing medium in the absence or presence of EGF, PDGF-BB or HGF as detailed above. Tet-induction was also started the day after seeding.
(§2) Largely irrespective of the cell numbers per well, the cells of all cell lines were in suspension and formed one or few very condensed/compact, opaque, rod-, disc- or kidney-shaped aggregates with a smooth surface, in which individual cells could not be discerned. Phenotype changes became apparent ~24 h after tet induction in ZM77 and ZM170 cell lines only, and Δpt(-tet →+tet)max was reached after ~2 days. In these cell lines Src-YF or Src-TQ/YF expression, respectively, induces scattering of the cells. Many cells are floating in the medium individually or in small clusters and the remaining large aggregate(s) are irregular-shaped and rather loose than compact; individual cells can easily be discerned and thus, the surfaces of these aggregates are rough as with bunches of grapes (Fig.14a,b). This biological response was readily observed with or without any of the above growth factors, wherefore normal growth medium without any additional growth factor was subsequently used in this assay type.
(§3) To that end, the test compounds PP1-Chr., SU6656 and PP2 were individually added to the cells together with tet, and the development of the phenotype changes in the presence of these compounds was monitored subsequently in direct comparison with tet-induced cells that received no compound (Fig.14c-j). The compounds were also added to the cells without tet-induction of Src/ Src mutant expression as controls for non-specific/ toxicity effects. The experiments were performed with several ZM77 cell lines.

[3] = system: Src-TQ/YF expressing cell line ZM170.21; experiment: as above; assay type: cell-based, human; details: ZM170.21 (Src-TQ/YF) in suspension, Ultralow Attachment Plates
Procedure: as §1, §2, §3

[4] = system: cell line ZM76.3 (Src-KA); experiment: CTB cell viability assay, suppression of tet-induced reduction; assay type: cell-based, human; details: ZM76.3, CTB assay
Excerpt: To proof the concept of the assay platform according to the invention in a quantitative manner with a highly parallel readout, the following cell viability / metabolic activity assays from Promega according to the manufacturer's protocols: "CellTiter 96 AQueous One Solution Cell Proliferation Assay (MTS)", CellTiter-BlueTM Cell Viability Assay (CTB), and the ATP-status assay "CellTiter-Glo Luminescent Cell Viability Assay" (ATP) were used to obtain quantitative values reflecting (aspects of) the phenotype changes. The cells were seeded into white-walled/ clear bottom 96-well plates ["MICROTEST" by Falcon, cat.no. […] Measurements were taken 1,2 and 3 days later using the Wallac Victor^2TM multilabel plate reader (Perkin Elmer). Absorbance was measured at 490nm (MTS). Luminescence mode was used for the ATP assay. For CTB fluorescence excitation wavelength was 550nm (filter: 550(20)nm), emission wavelength was 590 nm (filter: 590(20)nm). […] The cell viability/ metabolic activity upon tet-induction in relation to the cell viability/ metabolic activity without tet ("+/tet(means") is calculated from the quotient of the means of the measured cell viability/ metabolic activity signals from i) cells incubated without tet and ii) cells incubated with tet. […] It is calculated as toxicity=1-mean(-tet, compound)/mean(-tet,(DMSO)). […]

[5] = system: Src-YF expressing cell line ZM77.8; experiment: CTB and ATP cell viability/metabolic activity assays, suppression of tet-induced reduction; assay type: cell-based, human; details: ZM77.8 (Src-YF), 5µM PP2 + 10µM PP1-Chr., 40µM D5, 1µM 17-AAG, 1µM radicicol
Excerpt: (§4) To proof the concept of the assay platform according to the invention in a quantitative manner with a highly parallel readout, the following cell viability / metabolic activity assays from Promega according to the manufacturer's protocols: "CellTiter 96 AQueous One Solution Cell Proliferation Assay (MTS)", CellTiter-BlueTM Cell Viability Assay (CTB), and the ATP-status assay "CellTiter-Glo Luminescent Cell Viability Assay" (ATP) were used to obtain quantitative values reflecting (aspects of) the phenotype changes. The cells were seeded into white-walled/ clear bottom 96-well plates ["MICROTEST" by Falcon, cat.no. 353947] for MTS and ATP assays and in black-walled/ clear bottom 96-well plates ["MICROTEST" by Falcon, cat.no. 353948] for the CTB assay at the appropriate densities. Tet and/or compound addition (where applicable) was started the next day. Measurements were taken 1,2 and 3 days later using the Wallac Victor^2TM multilabel plate reader (Perkin Elmer). Absorbance was measured at 490nm (MTS). Luminescence mode was used for the ATP assay. For CTB fluorescence excitation wavelength was 550nm (filter: 550(20)nm), emission wavelength was 590 nm (filter: 590(20)nm). Indicated are the means of sixplicate determinations (from 6 independent wells) in the absence of tet (mean(-tet)) and in the presence of tet (mean(+tet)), followed by the respective corresponding standard deviations SD(-tet) and SD(+tet). The cell viability/ metabolic activity upon tet-induction in relation to the cell viability/ metabolic activity without tet ("+/tet(means") is calculated from the quotient of the means of the measured cell viability/ metabolic activity signals from i) cells incubated without tet and ii) cells incubated with tet. […] Furthermore indicated are the corresponding Z' values. In the present context: Z'=1-(3(SD(+tet)+SD(-tet))/ |mean(+tet)-mean(-tet)|. […] SD=0) (Zhang et al., 1999). Z'≥0 is required for an assay useful for a screening approach; a Z'≥0.5 is considered excellent for an assay with regard to high throughput screening. […] Three more parameters reflecting the effects of compounds on cell viability/metabolic activity in these assays are indicated in Tab.3 and Tab.4: Toxicity reflects the nonspecific (i.e. irrespective of tet-induced Src/ Src mutant expression) effects of a compound on the viability/ metabolic activity of the cells. It is calculated as toxicity=1-mean(-tet, compound)/mean(-tet,(DMSO)). […] The suppression value quantifies the potency of a compound with respect to suppression of the tet-induced change in cell viability / metabolic activity. Usually, tet-induction reduces cell viability / metabolic activity due to Src activity and addition of a Src inhibitory compound mitigates this reduction. A suppression of 100% means that the compound totally suppresses the tet-induced decrease in cell viability / metabolic activity (as in the absence of tet). The following formula is employed: Suppres-sion=([…]). Finally, the corresponding Z' value is calculated as follows: Z'(suppression)=1- 3([…]). The factor Qtox corrects the means and SD determined in the absence of a compound for the (nonspecific) toxicity effect of the respective compound, which would otherwise overlay and obscure the specific suppression, if toxicity is not neglectable. […] On each day 4 measurements are taken (1, 2, 3 and 4 h after the addition of the CTB assay reagents). […]

[6] = system: Src-TQ/YF expressing cell line ZM170.21; experiment: as above; assay type: cell-based, human; details: ZM170.21 (Src-TQ/YF), 5µM PP2 + 10µM PP1-Chr., 40µM D5, 1µM 17-AAG, 1µM radicicol
Excerpt: as §4

[7] = system: Src-YF expressing ZM77 cell lines; experiment: Suppression of tet-induced phenotype changes, evaluated by eye/microscope, normal cell culture plates; assay type: cell-based, human; details: adherent, serum-containing medium
Procedure: Phenotype changes -tet → +tet were evaluated in 24-well plates (Nunc; cat.no. 143982) under the following several different growth conditions to identify the strongest possible response (Δpt(-tet→+tet)max) 1. full (10% serum containing) growth medium a) without any growth factor supplement (-), b) with epidermal growth factor (EGF; 100ng/ml) (cat.no. 115, Research Diagnostics Inc. (RDI), Flanders, NJ, USA) or c) platelet derived growth factor type BB (PDGF-BB; 30ng/ml) (cat.no. 114b, RDI) or d) hepatocyte growth factor (HGF; 20ng/ml) (RDI, cat.no.300-010), or 2. serum-free medium a) - or b) +EGF or c) +PDGF or d) +HGF. In all cases, cells were first seeded into standard 24-well or 96-well plates (Nunc) in full growth medium. The cell number seeded per well was also varied to identify the most suitable cell densities producing Δpt(-tet→+tet)max. […]
To that end, the test compounds PP1-Chr., PP2 (cat.no. 529573, Calbiochem) and SU6656 (cat.no. 572635, Calbiochem) (see Fig.9p for chemical structures) were individually added to the cells together with tet, and the development of the phenotype changes in the presence of these compounds was monitored subsequently in direct comparison with cells that received no compound or only vehicle (0.2% DMSO) together with tet induction. […]

Abl-TQ = details: cited from earlier work

Row | Structure (SMILES) | suppression of tet-induced phenotype changes (cell scattering) [2] | suppression of tet-induced phenotype (cell scattering) [3] | suppression of the tet-induced reductions of the cell viability/ metabolic activity (+/-tet(means)-values) [5] | suppression of the +/-tet(means)-values [6] | also measured
1 | Cc1ccc(-c2nn(C(C)(C)C)c3ncnc(N)c23)cc1 [PP1] | – | – | – | – | inhibition of Src family kinases carrying the TQ mutations [1]: do not inhibit
2 | C[C@@H]1C[C@H]2O[C@@H]2/C=C\C=C\C(=O)Cc2c(Cl)c(O)cc(O)c2C(=O)O1 [Radicicol, radicicol] | suppress to a large extent | suppress to a large extent | equally effective | equally effective | suppression of the Src-KA-induced phenotype [4]: effectively suppressing
3 | CN(C)S(=O)(=O)c1ccc2c(c1)/C(=C/c1cc3c([nH]1)CCCC3)C(=O)N2 [SU6656] | partially suppressed | – | – | – | suppression of tet-induced phenotype changes [7]: partially suppressed
4 | C=CCNC1=C2C[C@@H](C)C[C@H](OC)[C@H](O)[C@@H](C)/C=C(\C)[C@H](OC(N)=O)[C@@H](OC)/C=C\C=C(/C)C(=O)NC(=CC1=O)C2=O [17-AAG] | suppress to a large extent | suppress to a large extent | equally effective | equally effective | –
5 | Cc1ccc(NC(=O)c2ccc(CN3CCN(C)CC3)cc2)cc1Nc1nccc(-c2cccnc2)n1 [Gleevec®] | – | – | – | – | inhibition of Abl-TQ (Abl-TQ): does not inhibit

Source: EP1541694A1, “Methods of identifying, selecting and/or characterizing compounds which modulate the activity of a Src family kinase” (Sirenade Pharmaceuticals AG, priority 2003, dated 2005)
